Experiments:
[1] = system: Vero cells; conditions: African green monkey
[2] = system: DENV-2 16681 strain; assay: DENV-2 antiviral assay (eGFP fluorescence); format: cell-based, Dengue virus; conditions: DENV-2 16681 eGFP, Vero cells, MOI 0.5, 3 days
Experimental: The antiviral activity of all the compounds of the invention was tested against the DENV-2 16681 strain which was labeled with enhanced green fluorescent protein (eGPF). The culture medium consists of minimal essential medium supplemented with 2% of heat-inactivated fetal calf serum, 0.04% gentamycin (50 mg/mL) and 2 mM of L-glutamine. Vero cells, obtained from ECACC, were suspended in culture medium and 25 μL was added to 384-well plates (2500 cells/well), which already contain the antiviral compounds. Typically, these plates contain a 5-fold serial dilution of 9 dilution steps of the test compound at 200 times the final concentration in 100% DMSO (200 nL). […] Finally, each plate contains wells which are assigned as virus controls (containing cells and virus in the absence of compound), cell controls (containing cells in the absence of virus and compound) and medium controls (containing medium in the absence of cells, virus and compounds). To the wells assigned as medium control, 25 μL of culture medium was added instead of Vero cells. Once the cells were added to the plates, the plates were incubated for 30 minutes at room temperature to allow the cells to distribute evenly within the wells. Next, the plates were incubated in a fully humidified incubator (37° C., 5% CO2) until the next day. Then, DENV-2 strain 16681, labeled with eGFP, was added at a multiplicity of infection (MOI) of 0.5. Therefore, 15 μL of virus suspension was added to all the wells containing test compound and to the wells assigned as virus control. In parallel, 15 μL of culture medium was added to the medium and cell controls. Next, the plates were incubated for 3 days in a fully humidified incubator (37° C., 5% CO2). At the day of the read out, the eGFP fluorescence was measured using an automated fluorescence microscope at 488 nm (blue laser). Using an in-house LIMS system, inhibition dose response curves for each compound were calculated and the half maximal effective concentration (EC50) was determined. Therefore, the percent inhibition (I) for every test concentration is calculated using the following formula: I=100*(ST-SCC)/(SVC-SCC); ST, SCC and SVC are the amount of eGFP signal in the test compound, cell control and virus control wells, respectively. The EC50, represents the concentration of a compound at which the virus replication is inhibited with 50%, as measured by a 50% reduction of the eGFP fluorescent intensity compared to the virus control. The EC50 is calculated using linear interpolation (Table 1).

[3] = in vitro; conditions: African green monkey
[4] = Dengue virus, DENV2, Vero, 72 h

## COc1cc(NC(C(=O)N2CCc3ccc(OC(F)(F)F)cc32)c2ccc(Cl)cc2F)cc(OCCCC(=O)O)c1 (single isomer, unassigned) [Compound 10B]
[1]
  CC50: 8800 nM
[2]
  EC50: 5.5 nM

## COc1cc(NC(C(=O)N2CCc3ccc(C(F)(F)F)cc32)c2ccc(F)cc2)cc(OCCCC(=O)O)c1 (single isomer, unassigned) [Compound 1A]
[3]
  CC50: > 25000 nM
[2]
  EC50: 180 nM

## COc1cc(NC(C(=O)N2CCc3ccc(C(F)(F)F)cc32)c2ccc(Cl)cc2)cc(OCCCC(=O)O)c1 (single isomer, unassigned) [Compound 3A]
[3]
  CC50: 11000 nM
[2]
  EC50: 3.9 nM

## COc1cc(NC(C(=O)N2CCc3ccc(OC(F)(F)F)cc32)c2ccc(Cl)cc2OC)cc(OCCCC(=O)O)c1 (racemic) [Compound 8, 4-(3-((1-(4-chloro-2-methoxyphenyl)-2-oxo-2-(6-(trifluoro-methoxy)indolin-1-yl)ethyl)amino)-5-methoxyphenoxy)butanoic acid]
[3]
  CC50: 12000 nM
[2]; [4]
  EC50: 0.13 nM

## COc1cc(NC(C(=O)N2CCc3ccc(OC(F)(F)F)cc32)c2ccc(Cl)cc2OC)cc(OCCCC(=O)O)c1 (single isomer, unassigned) [Compound 8A]
[3]
  CC50: 12000 nM
[2]
  EC50: 280 nM

## COc1cc(NC(C(=O)N2CCc3ccc(OC(F)(F)F)cc32)c2ccc(F)cc2)cc(OCCCC(=O)O)c1 (single isomer, unassigned) [Compound 2A]
[3]
  CC50: 14000 nM
[2]
  EC50: 56 nM

## COc1cc(NC(C(=O)N2CCc3cc(OC)c(OC(F)(F)F)cc32)c2ccc(Cl)cc2)cc(OCCCC(=O)O)c1 (single isomer, unassigned) [Compound 12A]
[3]
  CC50: 12000 nM
[2]
  EC50: 380 nM

## COc1cc(NC(C(=O)N2CCc3ccc(C(F)(F)F)cc32)c2ccc(Cl)cc2OC)cc(OCCCC(=O)O)c1 (single isomer, unassigned) [Compound 6A]
[3]
  CC50: 12000 nM
[2]
  EC50: 23 nM

## COc1cc(NC(C(=O)N2CCc3cc(OC)c(C(F)(F)F)cc32)c2ccc(Cl)cc2F)cc(OCCCC(=O)O)c1 (racemic) [Compound 11, 4-(3-((1-(4-chloro-2-fluorophenyl)-2-(5-methoxy-6-(trifluoromethyl)indolin-1-yl)-2-oxoethyl)amino)-5-methoxyphenoxy)butanoic acid]
[3]
  CC50: 11000 nM
[2]; [4]
  EC50: 0.66 nM

## COc1cc(NC(C(=O)N2CCc3ccc(OC(F)(F)F)cc32)c2ccc(Cl)cc2F)cc(OCCCC(=O)O)c1 (racemic) [Compound 10, 4-(3-((1-(4-chloro-2-fluorophenyl)-2-oxo-2-(6-(trifluoromethoxy)indolin-1-yl)ethyl)amino)-5-methoxy-phenoxy)butanoic acid]
[3]
  CC50: 10000 nM
[2]; [4]
  EC50: 0.24 nM
